{"source": "patent US10092530B2", "about": "“Method for inhibiting melanogenesis and promoting collagen production and wound healing” (TCI Co., Ltd, priority 2015, dated 2018)", "assay_type_in_all_cases": "cell-based", "key": {"[1]": {"tested_on": "mouse melanoma cell line B16F10", "assay": "Melanin quantification assay in mouse melanoma cell line B16F10", "settings": "for decreased melanin content compared with the CTL group: 48 hours, B16F10", "procedure": "Therefore, the inventors of the present application studied the inhibitory effect of the compound of formula (I) on MITF gene expression in EXAMPLE 3. The following five groups were compared in this example: • (1) Control group (CTL group): incubating a culture of human dermal fibroblasts for a predetermined time; • (2) One dose-24 hours group (1X-24 group): adding one dose of the compound of the present invention to a culture of human dermal fibroblasts and then examining the culture after an incubation of 24 hours, wherein the term “one dose” refers to 8.75 ng/mL of the compound of formula (I) in DMSO; • (3) One dose-48 hours group (1X-48 group): adding one dose of the compound of the present invention to a culture of human dermal fibroblasts and then examining the culture after an incubation of 48 hours; • (4) Double dose-24 hours group (2X-24 group): adding a double dose of the compound of the present invention to a culture of human dermal fibroblasts and then examining the culture after an incubation of 24 hours, wherein the term “double dose” refers to 17.5 ng/mL of the compound of formula (I); and • (5) Double dose-48 hours group (2X-48 group): adding a double dose of the compound of the present invention to a culture of human dermal fibroblasts and then examining the culture after an incubation of 48 hours.\nIn addition, a melanin quantification assay was performed to examine the change of melanin content in mouse melanoma cell line B16F10 (ATCC CRL-6475) upon addition of the compound of the present invention. The treatment of the cells was the same as described above. […] Thus, it is concluded that the compound at a concentration between 8 ng/ml and 18 ng/ml causes a decrease of at least 20% in melanin formation in mouse melanoma cells."}, "[2]": {"tested_on": "MITF gene expression", "assay": "MITF gene expression by RT-PCR in human dermal fibroblasts", "settings": "2X-48 group: 17.5 ng/mL, 48 hours", "procedure": "(§1) Human dermal fibroblasts (CCD-966SK cells, former ATCC CRL-1881), a type of adherent skin cells, were cultured in minimum essential medium supplemented with 10% (v/v) fetal bovine serum (FBS), 0.37% (w/v) sodium bicarbonate, 0.1 mM non-essential amino acid solution (NEAA), 1 mM sodium pyruvate, 0.03% (w/v) […], 100 units/ml penicillin and 100 μg/ml streptomycin at 37° C. under humidified atmosphere (relative humidity of 80%) containing 5% CO2. During the culture, the medium was renewed every two days. When the cultured cells reached confluence and formed a monolayer, which was examined by an inverted microscope, a subculture was carried out.\nTherefore, the inventors of the present application studied the inhibitory effect of the compound of formula (I) on MITF gene expression in EXAMPLE 3. […]"}, "[3]": {"tested_on": "human dermal fibroblasts", "assay": "Collagen secretion assay (Sircol) in human dermal fibroblasts", "settings": "for increase in collagen secretion compared with the CTL group: 24 hours"}, "[4]": {"tested_on": "MMP-9 gene expression", "assay": "MMP-9 gene expression by RT-PCR in human dermal fibroblasts", "settings": "1X-24 group: 8.75 ng/mL, 24 hours", "procedure": "as §1\nTherefore, the inventors of the present application studied the inhibitory effect of the compound of formula (I) on MMP-9 gene expression in EXAMPLE 2. […]"}, "[5]": {"tested_on": "human dermal fibroblasts", "assay": "Wound repair/closure of an incised wound area in a culture of human dermal fibroblasts", "settings": "for percentage of wound repair/closure relative to the CTL group: 18 hours", "procedure": "as §1\nDue to the importance of wound healing, the inventors of the present application studied the promoting effect of the compound of formula (I) on wound healing of skin in EXAMPLE 4. The following four groups were compared in this example: • (1) Control group (CTL group): creating an incised wound area in a culture of human dermal fibroblasts and then incubating and examining the culture for 18 hours; • (2) One dose-18 hours group (1X-18 group): creating an incised wound area in a culture of human dermal fibroblasts and adding one dose of the compound of the present invention to the culture; and then examining changes in the wound area of human dermal fibroblasts after an incubation of 18 hours, wherein the term “one dose” refers to 8.75 ng/mL of the compound of formula (I) in DMSO; • (3) Double dose-18 hours group (2X-18 group): creating an incised wound area in a culture of human dermal fibroblasts and adding one dose of the compound of the present invention to the culture; and then examining changes in the wound area of human dermal fibroblasts after an incubation of 18 hours, wherein the term “double dose” refers to 17.5 ng/mL of the compound of formula (I); and • (4) Fourfold dose-18 hours group (4X-18 group): creating an incised wound area in a culture of human dermal fibroblasts and adding one dose of the compound of the present invention to the culture; and then examining changes in the wound area of human dermal fibroblasts after an incubation of 18 hours, wherein the term “fourfold dose” refers to 35 ng/mL of the compound of formula (I).\nAccording to FIG. 8, a constant number of fibrocytes (about 1-2×10^5 cells) were produced in each of the CTL, 1X-18, 2X-18, and 4X-18 groups to repair and close the wound at 18 hours after wounding.\nIn addition, a percentage of wound repair/closure in the wound area of human dermal fibroblasts was determined for the above four groups by analyzing the surface area change of the wound area in FIG. 8 using the software ImageJ. […]"}}}
{"smiles": "C=C1CC[C@@H](C)C2C[C@@H](O)[C@@H](C(C)C(=O)O)CC12", "note": "(stereo partly drawn) [compound of formula (I)]", "values": [{"measurement": "decreased melanin content compared with the CTL group", "setting": "[1]; 1X-48 group: 8.75 ng/mL", "value": 20, "unit": "%"}, {"measurement": "decreased melanin content compared with the CTL group", "setting": "[1]; 2X-48 group: 17.5 ng/mL", "value": 40, "unit": "%"}, {"measurement": "decrease in melanin formation", "setting": "[1]; concentration between 8 ng/ml and 18 ng/ml, mouse melanoma cells", "value": "at least 20%"}, {"measurement": "inhibition of MITF gene expression compared with the CTL group", "setting": "[2]", "value": "about 50%"}, {"measurement": "increase in collagen secretion compared with the CTL group", "setting": "[3]; 1X-24 group: 8.75 ng/mL", "value": 20, "unit": "%"}, {"measurement": "increase in collagen secretion compared with the CTL group", "setting": "[3]; 2X-24 group: 17.5 ng/mL", "value": 30, "unit": "%"}, {"measurement": "increase in collagen secretion", "setting": "[3]; concentration between 8 ng/ml and 18 ng/ml", "value": "at least 20%"}, {"measurement": "inhibition of MMP-9 gene expression compared with the CTL group", "setting": "[4]", "value": "about 80%"}, {"measurement": "degree of repair/closure in the wound area compared with the CTL group (micrographs)", "setting": "[5]; 1X-18, 2X-18 and 4X-18 groups (8.75, 17.5, 35 ng/mL), 18 hours after wounding", "value": "significantly higher degree of repair/closure"}, {"measurement": "percentage of wound repair/closure relative to the CTL group", "setting": "[5]; 1X-18 group: 8.75 ng/mL", "value": 1.21, "unit": "fold"}, {"measurement": "percentage of wound repair/closure relative to the CTL group", "setting": "[5]; 2X-18 group: 17.5 ng/mL", "value": 1.4, "unit": "fold"}, {"measurement": "percentage of wound repair/closure relative to the CTL group", "setting": "[5]; 4X-18 group: 35 ng/mL", "value": 1.5, "unit": "fold"}]}
